# Columns and labels:
# [1] = Differential Scanning Calorimetry of MAP/swellable polymer systems; format: physicochemical; settings: DSC; for % Residual of Original Heat of Fusion: relative to pure crystalline MAP
# Text: Alternatively, the grinding of the MAP-swellable polymer mixture can be stopped at any time the original crystalline form of MAP has been transformed into another, more energetic form.
# [2] = Solubility (saturation concentration) of MAP/swellable polymer systems; format: physicochemical; settings: pH 5.5 phosphate buffer, 37° C.
# Description: The flasks were placed in a shaking thermostated apparatus and aliquots of sample solutions were taken by filtering through a Millipore membrane. The concentration of MAP in the filtered aliquot was determined both by spectrophotometry (SP8-100, Pye Unicam), after dilution with methanol, and by HPLC (column: Spherisorb S30DS2, Phase Sep.; mobile phase: acetonitrile/water 70/30 v/v; flow rate: 1 ml/min; U.V. detection, λ=242 nm), after dilution with acetonitrile.
Structure (SMILES),Heat of Fusion [1] [J/g],Melting Point [1],% Residual of Original Heat of Fusion [1] [%],Melting Point ([1]; listed as pure MAP) [°C],Solubility ([2]; 5 min) [µg/mL],Solubility ([2]; 15 min) [µg/mL],Solubility ([2]; 1 hr) [µg/mL],Solubility ([2]; 6 hrs) [µg/mL]
"CC(=O)O[C@]1(C(C)=O)CC[C@H]2[C@@H]3C[C@H](C)C4=CC(=O)CC[C@]4(C)[C@H]3CC[C@@]21C [Micronized pure MAP, 6α-methyl, 17α-hydroxy-progesterone acetate]",82.798,205.3 °C,94.1,–,–,–,–,–
"CC(=O)O[C@]1(C(C)=O)CC[C@H]2[C@@H]3C[C@H](C)C4=CC(=O)CC[C@]4(C)[C@H]3CC[C@@]21C [Pure crystalline MAP, 6α-methyl, 17α-hydroxy-progesterone acetate]",88.003,205-206 °C,100,205.6,< 0.04,0.32,0.68,1.00

# From patent publication US4632828A, “Pharmaceutical composition” (priority 1984, dated 1986)
